Experiments:
Assay in all cases: Greenhouse postemergence herbicidal safening trial, visual injury after 20-22 d
Johnson grass (SORHA) = type: in vivo, Sorghum halepense
Source text: (§1) Greenhouse Trial Methodology—Evaluation of Postemergence Herbicidal Safening in Crops
(§2) Seeds of the desired test plant species were planted in a 90:10% v/v (volume/volume) mixture of PRO-MIX® BX (Premier Tech Horticulture, Quakertown, PA, USA) and PROFILE® GREENS GRADE™ (Profile Products LLC, Buffalo Grove, IL, USA) planting mixture, which typically has a pH of 5.2 to 6.2 and an organic matter content of at least 50 percent, in plastic pots with a surface area of 103.2 square centimeters (cm^2). When required to ensure good germination and healthy plants, a fungicide treatment and/or other chemical or physical treatment was applied. The plants were grown for 7-36 days (d) in a greenhouse with an approximate 14-hour (h) photo-period which was maintained at about 23° C. during the day and 22° C. during the night. Nutrients and water were added on a regular basis and supplemental lighting was provided with overhead metal halide 1000-Watt lamps as necessary. The plants were employed for testing when they reached the second or third true leaf stage.
(§3) Emulsifiable concentrates of each of each pyridine carboxylate herbicide (Compound A or Compound B) were prepared at 100 grams acid equivalent per liter (g ae/L). An aliquot of each emulsifiable concentrate was placed in a 25 mL glass vial and diluted with an aqueous mixture of 1.25% (v/v) ACTIROB® B esterified rapeseed oil (Bayer Crop Science, Research Triangle Park, NC, USA) or MSO® Concentrate with LECI-TECH® methylated soybean oil (Loveland Products, Loveland, CO, USA) to obtain concentrated stock solutions at the highest application rate for each herbicide, based upon a 12 milliliter (mL) application volume at a rate of 187 liters per hectare (L/ha). The concentrated stock solutions were further diluted with an aqueous mixture of 1.25% v/v ACTIROB® B or MSO® Concentrate with LECI-TECH® to obtain stock solutions at reduced application rates for each herbicide. Spray solutions of the herbicide combinations (Compound A or Compound B plus safener) were prepared by adding weighed amounts or aliquots of the azole carboxylate safener to the stock solutions of Compound A or Compound B to form 12-mL spray solutions in two-way combinations.
(§4) The spray solutions were applied to the plant material with an overhead Mandel track sprayer equipped with 8002E nozzles calibrated to deliver 187 L/ha over an application area of 0.503 square meters (m^2) at a spray height of 18 inches (43 centimeters (cm)) above the average plant canopy. Control plants were sprayed in the same manner with the solvent blank. All herbicide (component a) application rates are given as “g ae/ha” and all safener (component b) application rates are given as “g ai/ha.”
(§5) The treated plants and control plants were placed in a greenhouse as described above and watered by sub-irrigation to prevent wash-off of the test compounds. After 20-22 d, the condition of the test plants as compared with that of the control plants was determined visually and scored on a scale of 0 to 100 percent where 0 corresponds to no injury and 100 corresponds to complete kill.

Canada horseweed (ERICA) = type: in vivo, Erigeron canadensis
Source text: as §1, §2, §3, §4, §5

winter rape (BRSNW) = type: in vivo, Brassica napus
Source text: as §1, §2, §3, §4, §5

[1] = tested on: common lambsquarters (CHEAL); type: in vivo, Chenopodium album L.
Source text: as §1, §2, §3, §4, §5

pigweed (AMARE) = type: in vivo, Amaranthus retroflexus
Source text: as §1, §2, §3, §4, §5

large crabgrass (DIGSA) = type: in vivo, Digitaria sanguinalis
Source text: as §1, §2, §3, §4, §5

wild pansy (VIOTR) = type: in vivo, Viola tricolor
Source text: as §1, §2, §3, §4, §5

Canada thistle (CIRAR) = type: in vivo, Cirsium arvense
Source text: as §1, §2, §3, §4, §5

[2] = tested on: Chinese sprangletop (LEFCH); type: in vivo, Leptochloa chinensis
Source text: as §1, §2, §3, §4, §5

spring barley (HORVS) = type: in vivo, Hordeum vulgare; conditions: applied alone
Source text: as §1, §2, §3, §4, §5

maize (ZEAMX) = type: in vivo, Zea mays
Source text: as §1, §2, §3, §4, §5

wild buckwheat (POLCO) = type: in vivo, Polygonum convolvulus
Source text: as §1, §2, §3, §4, §5

wild oat (AVEFA) = type: in vivo, Avena fatua
Source text: as §1, §2, §3, §4, §5

wild chamomile (MATCH) = type: in vivo, Matricaria chamomilla; conditions: applied alone
Source text: as §1, §2, §3, §4, §5

barnyardgrass (ECHCG) = type: in vivo, Echinochloa crus-galli
Source text: as §1, §2, §3, §4, §5

common sunflower (HELAN) = type: in vivo, Helianthus annuus
Source text: as §1, §2, §3, §4, §5

Measured: % visual injury Ob

CCOC(=O)C1=NN(c2ccc(Cl)cc2Cl)C(C)(C(=O)OCC)C1 (centres unmarked) [Mefenpyr-diethyl, mefenpyr-diethyl]
0%: Johnson grass (SORHA); Mefenpyr-diethyl 20 g/ha | Johnson grass (SORHA); Mefenpyr-diethyl 40 g/ha | Johnson grass (SORHA); Mefenpyr-diethyl 80 g/ha | Canada horseweed (ERICA); Mefenpyr-diethyl 20 g/ha | Canada horseweed (ERICA); Mefenpyr-diethyl 40 g/ha | Canada horseweed (ERICA); Mefenpyr-diethyl 80 g/ha | winter rape (BRSNW); Mefenpyr-diethyl 20 g/ha | winter rape (BRSNW); Mefenpyr-diethyl 40 g/ha | winter rape (BRSNW); Mefenpyr-diethyl 80 g/ha | [1]; Mefenpyr-diethyl 20 g/ha | [1]; Mefenpyr-diethyl 40 g/ha | [1]; Mefenpyr-diethyl 80 g/ha | pigweed (AMARE); Mefenpyr-diethyl 20 g/ha | pigweed (AMARE); Mefenpyr-diethyl 40 g/ha | pigweed (AMARE); Mefenpyr-diethyl 80 g/ha | pigweed (AMARE); applied alone, 20 g/ha | pigweed (AMARE); applied alone, 40 g/ha | pigweed (AMARE); applied alone, 80 g/ha | pigweed (AMARE); applied alone, 120 g/ha | large crabgrass (DIGSA); Mefenpyr-diethyl 20 g/ha | large crabgrass (DIGSA); Mefenpyr-diethyl 40 g/ha | large crabgrass (DIGSA); Mefenpyr-diethyl 80 g/ha | wild pansy (VIOTR); Mefenpyr-diethyl 20 g/ha | wild pansy (VIOTR); Mefenpyr-diethyl 40 g/ha | wild pansy (VIOTR); Mefenpyr-diethyl 80 g/ha | Canada thistle (CIRAR); Mefenpyr-diethyl 20 g/ha | Canada thistle (CIRAR); Mefenpyr-diethyl 40 g/ha | Canada thistle (CIRAR); Mefenpyr-diethyl 80 g/ha | [2]; Mefenpyr-diethyl 20 g/ha | [2]; Mefenpyr-diethyl 40 g/ha | [2]; Mefenpyr-diethyl 80 g/ha | spring barley (HORVS); 10 g/ha | spring barley (HORVS); 20 g/ha | spring barley (HORVS); 40 g/ha | spring barley (HORVS); 80 g/ha | spring barley (HORVS); 120 g/ha | maize (ZEAMX); Mefenpyr-diethyl 20 g/ha | maize (ZEAMX); Mefenpyr-diethyl 40 g/ha | maize (ZEAMX); Mefenpyr-diethyl 80 g/ha | maize (ZEAMX); applied alone, 20 g/ha | maize (ZEAMX); applied alone, 40 g/ha | maize (ZEAMX); applied alone, 80 g/ha | maize (ZEAMX); applied alone, 120 g/ha | wild buckwheat (POLCO); Mefenpyr-diethyl 20 g/ha | wild buckwheat (POLCO); Mefenpyr-diethyl 40 g/ha | wild buckwheat (POLCO); Mefenpyr-diethyl 80 g/ha | wild oat (AVEFA); Mefenpyr-diethyl 20 g/ha | wild oat (AVEFA); Mefenpyr-diethyl 40 g/ha | wild oat (AVEFA); Mefenpyr-diethyl 80 g/ha | wild chamomile (MATCH); 10 g/ha | wild chamomile (MATCH); 20 g/ha | wild chamomile (MATCH); 40 g/ha | barnyardgrass (ECHCG); Mefenpyr-diethyl 20 g/ha | barnyardgrass (ECHCG); Mefenpyr-diethyl 40 g/ha | barnyardgrass (ECHCG); Mefenpyr-diethyl 80 g/ha | common sunflower (HELAN); Mefenpyr-diethyl 20 g/ha | common sunflower (HELAN); Mefenpyr-diethyl 40 g/ha | common sunflower (HELAN); Mefenpyr-diethyl 80 g/ha | common sunflower (HELAN); applied alone, 20 g/ha | common sunflower (HELAN); applied alone, 40 g/ha | common sunflower (HELAN); applied alone, 80 g/ha | common sunflower (HELAN); applied alone, 120 g/ha
